Test results: ChEMBL document CHEMBL5214936, “Synthesis and evaluation of glycosylated quercetin to enhance neuroprotective effects on cerebral ischemia-reperfusion” (Bioorg Med Chem, 2022)
Activity calls are given as the source filed them. The calls are words filed in the database; no cut-off is given here.

Columns and labels:
[1] = n-Octanol-water partition coefficient, logP of the compound at 1 mg and measured after 2 hrs by HPLC analysis; assay type: physicochemical
[2] = Stability of compound in phosphate buffer assessed as parent compound remaining after 48 hrs by HPLC analysis; assay type: physicochemical; conditions: read-out: Stability
[3] = system: PC-12; assay: Cytotoxicity against rat PC-12 cells assessed as inhibition of cell viability at 2.5 to 50 uM incubated for 24 hrs by MTT assay; assay type: toxicity, cell-based; conditions: pc-12, 24 h, dose 2.5-50 µM
[4] = Cytotoxicity against mouse BEND3 cells assessed as inhibition of cell viability at 2.5 to 50 uM incubated for 24 hrs by MTT assay; assay type: toxicity, cell-based; conditions: dose 2.5-50 µM, read-out: Activity
[5] = system: PC-12; assay: Neuroprotective activity against H2O2-induced cytotoxicity in rat PC12 cells assessed as increase in cell viability at 2.5 to 100 uM preincubated for 2 hrs followed by H2O2 stimulation and measured after 2 hrs by MTT assay; assay type: functional, cell-based; conditions: dose 2.5-100 µM
[6] = system: PC-12; assay: Neuroprotective activity in rat PC12 cells assessed as reduction in H2O2-induced ROS generation at 20 to 100 uM preincubated for 2 hrs followed by H2O2 stimulation and measured after 2 hrs by DCFH-DA staining based fluorescence microscopic analysis; assay type: functional, cell-based; conditions: dose 20-100 µM
[7] = system: PC-12; assay: Antioxidant activity in rat PC12 cells assessed as reduction in H2O2-induced ROS level at 20 to 100 uM preincubated for 2 hrs followed by H2O2 stimulation and measured after 2 hrs by DCFH-DA staining based fow cytometry; assay type: functional; set-up: scale not given: the % may be the effect or the level left; conditions: dose 20-100 µM
[8] = system: Rattus norvegicus; assay: (§1) Neuroprotective activity against middle cerebral artery occlusion induced cerebral ischemia reperfusion rat model assessed infarct volume volume at 10 mg/kg, ip preincubated for 0.5 hrs followed by reperfusion and measured after 24 hrs by TTC staining based assay relative to control; assay type: functional, organism-based
[9] = system: Rattus norvegicus; assay: as §1, with “decrease in morphological changes in brain” for “infarct volume volume”, “hematoxylin and eosin” for “TTC”, “microscopy” for “assay relative to control”; assay type: functional, organism-based
[10] = system: Rattus norvegicus; assay: Neuroprotective activity against middle cerebral artery occlusion induced cerebral ischemia reperfusion rat model assessed decrease in neuronal loss in brain at 10 mg/kg, ip preincubated for 0.5 hrs followed by reperfusion and measured after 24 hrs by hematoxylin and eosin staining based microscopy; assay type: functional, organism-based
[11] = system: Rattus norvegicus; assay: Neuroprotective activity against middle cerebral artery occlusion induced cerebral ischemia reperfusion rat model assessed as decrease in brain SOD level at 10 mg/kg, ip preincubated for 0.5 hrs followed by reperfusion and measured after 24 hrs; assay type: functional, organism-based
[12] = system: Rattus norvegicus; assay: Neuroprotective activity against middle cerebral artery occlusion induced cerebral ischemia reperfusion rat model assessed as decrease in brain MDA level at 10 mg/kg, ip preincubated for 0.5 hrs followed by reperfusion and measured after 24 hrs; assay type: functional, organism-based
[13] = system: Rattus norvegicus; assay: Neuroprotective activity against middle cerebral artery occlusion induced cerebral ischemia reperfusion rat model assessed as increase in brain GSH level at 10 mg/kg, ip preincubated for 0.5 hrs followed by reperfusion and measured after 24 hrs; assay type: functional, organism-based
[14] = system: PC-12; assay: Cytotoxicity against rat PC-12 cells assessed as inhibition of cell viability at 20 to 50 uM incubated for 24 hrs by MTT assay; assay type: toxicity, cell-based; conditions: pc-12, 24 h, dose 20-50 µM
[15] = Cytotoxicity against mouse BEND3 cells assessed as inhibition of cell viability at 20 to 50 uM incubated for 24 hrs by MTT assay; assay type: toxicity, cell-based; conditions: bend3, 24 h, dose 20-50 µM

| Compound | logP at 2 h [1] | remaining at 48 h [2] | Activity [3] | inhibition at 24 h, up to 50 µM [4] | Activity [5] | Activity [6] | Activity [7] | Activity [8] | Activity [9] | Activity [10] | Activity [11] | Activity [12] | Activity [13] | Activity [14] | Activity [15] |
| --- | --- | --- | --- | --- | --- | --- | --- | --- | --- | --- | --- | --- | --- | --- | --- |
| O=c1c(O)c(-c2ccc(O)c(O)c2)oc2cc(OCc3cn(C[C@H]4O[C@@H](O)[C@H](O)[C@@H](O)[C@@H]4O)nn3)cc(O)c12 | -0.23 | 73.2% | > 80% | > 80% | Active | Active | 15.2% | Active | Active | Active | Active | Active | Active | – | – |
| O=c1c(O)c(-c2ccc(O)c(OCc3cn(C[C@H]4O[C@@H](O)[C@H](O)[C@@H](O)[C@@H]4O)nn3)c2)oc2cc(OCc3cn(C[C@H]4O[C@@H](O)[C@H](O)[C@@H](O)[C@@H]4O)nn3)cc(O)c12 | -1.12 | 81.5% | > 80% | > 80% | Active | Active | 5.06% | Active | Active | Active | Active | Active | Active | – | – |
| O=c1c(O)c(-c2ccc(O)c(O)c2)oc2cc(O)cc(O)c12 [QUERCETIN] | 1.38 | 11.2% | – | – | Active | Active | 21.56% | Active | Active | Active | Active | Active | Active | Toxic | Toxic |
